The record followed here is patent US9049858B2, “Pest controlling composition and method for controlling pest” (SUMITOMO CHEMICAL COMPANY, LIMITED, priority 2010, dated 2015).

The subject of the test is gray mold fungus (Botrytis cinerea). Nature of the test: Cucumber leaf disk preventive test against gray mold fungus. It is filed as in vivo. As to conditions: 15° C., six days. The method, then:
True leaf of cucumber was punched out with cork borer to 13 mm in diameter to prepare a leaf disk. In 24 well microwell plate that was dispensed with 1 ml 0.8% water agar, the leaf disk was placed such that the upper side of the leaf was in an upward direction. […] Control where 20 micro liter ion-exchange water was spread was prepared (for non-treated group). After confirming that the spray solution was dried, conidium of gray mold fungus (Botrytis cinerea) was suspended into potato dextrose broth (DIFCO) in a density, of about 10^5 conidia/mL and was then subjected to a spray inoculation. After leaving to stand the leaf disk in a growth chamber set up at 15° C. for six days, an onset area on each leaf was measured and a preventive value was then calculated by the following equation 1.
The same above operations were carried out using spinetoram or spinosad instead of abamectin, so as to obtain the respective preventive values. Preventive value(%)=100×(A−B)/A (Equation 1)
A: an onset area rate of plant belonging to non-treated group
B: an onset area rate of plant belonging to treated group onset area rate=(onset area of the leaf disk)/(the total area of the leaf disk)
The same above operations as described in Test Examples 1 to 6 were carried out using emamectin-benzoate, lepimectin or milbemectin instead of abamectin, so as to obtain the respective preventive values. […]

`CNC(=O)C(OC)c1ccccc1COc1cc(C)ccc1C` (centres unmarked) [the present amide compound]: the “preventive value (%)” value by setting is: (the present amide compound alone 1.0 ppm (dimethyl sulfoxide solution)) 46%; (the present amide compound alone 2.5 ppm (dimethyl sulfoxide solution)) 56%.
